Measured values: patent publication US7214696B2, “Compositions and methods for stabilizing transthyretin and inhibiting transthyretin misfolding” (The Scripps Research Institute, priority 2002, dated 2007)
Blank lines part the entries; values can stand above or below the molecule they belong to.

How the values were obtained:
[1] = target: T1, TTR in human blood plasma (Homo sapiens, UniProt P02766); test: Plasma selectivity: antibody capture/HPLC binding stoichiometry, Example 2; details: 10.8 μM inhibitor in human plasma, 37° C., 24 h; post-wash lower limit; maximum 2 per TTR tetramer
[2] = target: T1, TTR in human blood plasma; test: Immunoprecipitation/HPLC binding stoichiometry of PCBs and OH-PCBs in plasma, Example 4; parameters: from tissue; host or cells: human blood plasma from healthy volunteers; details: post-wash lower limit; for Equivalents Bound (Plasma): OH-PCB 10.8 μM in human blood plasma; for Equivalents Bound: PCB 10.8 μM in human blood plasma, TTR ≈5 μM
TTR in whole blood = target: T2, TTR in whole blood (Homo sapiens, UniProt P02766); test: Binding stoichiometry of OH-PCBs in whole blood, Example 4
T2 construct: Whole blood was drawn from healthy volunteers; from tissue; host or cells: human whole blood from healthy volunteers
Excerpt: Up to two PCBs can bind to the two identical thyroid hormone binding sites in a TTR tetramer. […] Several of the hydroxylated PCBs (e.g., 16 and 22) approach a binding stoichiometry of 2.

WT TTR tetramer [3] = target: T3, WT TTR tetramer (Homo sapiens, UniProt P02766); test: WT TTR tetramer dissociation rate in 6 M urea, Example 1; format: biochemical; details: TTR 1.8 μM
Procedure: Tetramer dissociation rates were measured by linking slow quaternary structural changes to the unfolding transition, with a rate of 5×10^5 times that of dissociation (Hammarström et al., Proc. Natl. Acad. Sci. U.S.A. 99, 16427 (2002)). Denaturation-detected dissociation is irreversible because the concentration of urea used (>6.0 M) cannot support refolding.

WT TTR tetramer [4] = target: T3, WT TTR tetramer; test: TTR tetramer dissociation kinetics by linked monomer unfolding in 6.5 M urea (far-UV CD), Example 2; details: 3.6 μM TTR, 3.6 or 7.2 μM inhibitor, 168 h time-course
[5] = target: T1, TTR in human blood plasma; format: binding; parameters: from tissue; host or cells: human blood plasma from healthy volunteers; details: test compound 10.8 μM, 24 h, 37° C.
Procedure: Human blood plasma (TTR conc. 3.6–5.4 μM) was incubated for 24 h with the test compound (10.8 μM) at 37° C. The TTR and any bound inhibitor were immunoprecipitated using a sepharose-bound polyclonal TTR antibody. The TTR with or without inhibitor bound was liberated from the resin at high pH, and the inhibitor:TTR stoichiometry was ascertained by HPLC analysis (FIG. 8).

WT TTR = WT TTR (Homo sapiens, UniProt P02766); test: Transthyretin amyloid fibril formation assay (pH 4.4, 72 h, OD 400 nm), Example 4; format: biochemical; details: equimolar inhibitor and TTR concentration (3.6 μM)
Procedure: TTR secreted into blood from the liver appears to be the source of systemic TTR amyloid. While it is not yet clear where or how amyloid is formed in humans, the typical denaturant in cells is acid, which is effective in converting nearly all amyloidogenic peptides and proteins into amyloid and/or related aggregates. […] Hydroxylated PCBs and PCB 3 were highly efficacious as TTR fibril inhibitors. At an inhibitor concentration equal to the WT TTR concentration (3.6 μM), only 12–50% of the normal amount of fibril formation was observed after a 72 h incubation period.
The compounds were dissolved in DMSO at a concentration of 720 μM. Five μL of a solution of the compound being evaluated was added to 0.5 mL of a 7.2 μM TTR solution in 10 mM phosphate pH 7.6, 100 mM KCl, 1 mM EDTA buffer, allowing the compound to incubate with TTR for 30 min. 495 μL of […] acetate pH 4.2, 100 mM KCl, 1 mM EDTA was added, to yield final protein and inhibitor concentrations of 3.6 μM each and a pH of 4.4. The mixture was then incubated at 37° C. for 72 h, after which the tubes were vortexed for 3 sec and the optical density was measured at 400 nm. The extent of fibril formation was determined by normalizing each optical density by that of TTR without inhibitor, defined to be 100% fibril formation. Control solutions of each compound in the absence of TTR were also tested and none absorbed appreciably at 400 nm.

Molecule: O=C(O)c1ccc(-c2ccc(F)cc2F)cc1 [Compound 12, 2′,4′-Difluorobiphenyl-4-carboxylic acid]
Plasma Selectivity (equiv bound) [1]: 0.20 ± 0.05 equiv bound

Molecule: O=C(O)c1ccc(-c2ccccc2)cc1 [Compound 22, Biphenyl-4-carboxylic acid]
Equivalents Bound (Plasma) [2]: 1.67 ± 0.40
Plasma Selectivity (equiv bound) [1]: 0.08 ± 0.01 equiv bound
Equivalents Bound (Blood) (TTR in whole blood): 1.69

Molecule: O=C(O)c1cccc2oc(-c3c(Cl)cccc3Cl)nc12 [Compound 6]
protection of the tetramer from dissociation in 6 M urea by T·I and T·I2 (WT TTR tetramer [3]): prevented tetramer dissociation in 6 M urea
Equivalents Bound [2]: 0.19 ± 0.11

Molecule: O=C(O)c1cccc2oc(-c3cc(Cl)cc(Cl)c3)nc12 [Compound 5]
Equivalents Bound [2]: 0.06 ± 0.04

Molecule: 2′,4′-Difluorobiphenyl-3-ol [Compound 2]
Equivalents Bound [2]: 0.18 ± 0.03

Molecule: Oc1ccc(-c2ccc(F)cc2F)cc1 [Compound 3, 2′,4′-Difluorobiphenyl-4-ol]
Equivalents Bound [2]: 1.50 ± 0.42

Molecule: Oc1cccc(-c2cc(F)cc(F)c2)c1 [Compound 8, 3′,5′-Difluorobiphenyl-3-ol]
Plasma Selectivity (equiv bound) [1]: 0.18 ± 0.05 equiv bound

Molecule: O=C(O)c1ccc2oc(-c3c(Cl)cccc3Cl)nc2c1 [Compound 13]
Equivalents Bound (Plasma) [2]: 0.84 ± 0.24
inhibitor:TTR binding stoichiometry in human blood plasma [5]: displayed the highest binding stoichiometries
Equivalents Bound (Blood) (TTR in whole blood): 0.86

Molecule: O=C(O)c1cccc(-c2ccc(F)cc2F)c1 [Compound 11, 2′,4′-Difluorobiphenyl-3-carboxylic acid]
Equivalents Bound (Plasma) [2]: 1.12 ± 0.22
inhibitor:TTR binding stoichiometry in human blood plasma [5]: displayed the highest binding stoichiometries
Plasma Selectivity (equiv bound) [1]: none observed
Equivalents Bound (Blood) (TTR in whole blood): 1.20

Molecule: O=C(O)c1ccc2oc(-c3ccccc3)nc2c1 [Compound 14]
Equivalents Bound (Plasma) [2]: 0.81 ± 0.29
efficacy as fibril inhibitor (WT TTR): among the highest observed to date
Equivalents Bound (Blood) (TTR in whole blood): 0.73

Molecule: OCc1ccccc1-c1cc(Cl)cc(Cl)c1 [Compound 50, 3′,5′-Dichlorobiphenyl-2-yl-methanol]
Plasma Selectivity (equiv bound) [1]: none observed

Molecule: O=C(O)c1cc(-c2ccc(Cl)cc2Cl)ccc1O [Compound 26, 2′,4′-Dichloro-4-hydroxybiphenyl-3-carboxylic acid]
Plasma Selectivity (equiv bound) [1]: 0.27 ± 0.02 equiv bound

Molecule: 3′,5′-Difluorobiphenyl-3-ol [Compound 8]
protection of the tetramer from dissociation in 6 M urea by T·I and T·I2 (WT TTR tetramer [3]): did not protect the tetramer substantially from dissociation in urea
Equivalents Bound [2]: No Binding

Molecule: O=C(O)c1cccc2oc(-c3ccccc3)nc12 [Compound 7]
protection of the tetramer from dissociation in 6 M urea by T·I and T·I2 (WT TTR tetramer [3]): prevented tetramer dissociation in 6 M urea
Equivalents Bound [2]: No Binding

More lines, main results first:

Plasma Selectivity (equiv bound) [1]: 0.07 ± 0.02 equiv bound
Molecule: O=C(O)c1ccc(-c2cc(F)c(O)c(F)c2)cc1 [Compound 29, 3′,5′-Difluoro-4′-hydroxybiphenyl-4-carboxylic acid]

Plasma Selectivity (equiv bound) [1]: none observed
Molecule: O=C(O)c1cccc(-c2ccccc2F)c1 [Compound 15, 2′-Fluorobiphenyl-3-carboxylic acid]

Plasma Selectivity (equiv bound) [1]: 0.26 ± 0.04 equiv bound
Molecule: O=C(O)c1ccc(-c2cc(Cl)c(O)c(Cl)c2)cc1 [Compound 31, 3′,5′-Dichloro-4′-hydroxybiphenyl-4-carboxylic acid]

Plasma Selectivity (equiv bound) [1]: 0.09 ± 0.00 equiv bound
Molecule: O=C(O)c1cc(-c2ccc(F)cc2)ccc1O [Compound 23, 4′-Fluoro-4-hydroxybiphenyl-3-carboxylic acid]

Plasma Selectivity (equiv bound) [1]: none observed
Molecule: O=C(O)c1cccc(-c2cc(F)c(O)c(F)c2)c1 [Compound 28, 3′,5′-Difluoro-4′-hydroxybiphenyl-3-carboxylic acid]

Plasma Selectivity (equiv bound) [1]: 0.08 ± 0.00 equiv bound
Molecule: O=C(O)c1ccc(-c2ccccc2F)cc1 [Compound 16, 2′-Fluorobiphenyl-4-carboxylic acid]
effect on TTR tetramer dissociation in 6.5 M urea (WT TTR tetramer [4]): affinity is insufficient to affect kinetic stabilization

Plasma Selectivity (equiv bound) [1]: 0.29 ± 0.12 equiv bound
Molecule: O=C(O)c1cccc(-c2c(F)cccc2F)c1 [Compound 19, 2′,6′-Difluorobiphenyl-3-carboxylic acid]

Equivalents Bound (Plasma) [2]: 1.63 ± 0.05
Molecule: 3′,5′-Difluorobiphenyl-3-carboxylic acid [Compound 17]

Plasma Selectivity (equiv bound) [1]: 0.07 ± 0.02 equiv bound
Molecule: O=C(O)c1cc(-c2ccccc2F)ccc1O [Compound 24, 2′-Fluoro-4-hydroxybiphenyl-3-carboxylic acid]

Equivalents Bound (Plasma) [2]: 1.86 ± 0.14
Molecule: 2′-Fluorobiphenyl-4-carboxylic acid [Compound 16]

Plasma Selectivity (equiv bound) [1]: none observed
Molecule: O=C(O)c1cc(-c2ccccc2)ccc1O [Compound 27, 4-Hydroxybiphenyl-3-carboxylic acid]

Plasma Selectivity (equiv bound) [1]: 1.30 ± 0.15 equiv bound
Molecule: O=Cc1cccc(-c2cc(Cl)cc(Cl)c2)c1 [Compound 39, 3′,5′-Dichloro-3-formylbiphenyl]
effect on TTR tetramer dissociation in 6.5 M urea (WT TTR tetramer [4]): overall reduction in the extent of tetramer dissociation

Plasma Selectivity (equiv bound) [1]: 0.12 ± 0.02 equiv bound
Molecule: O=C(O)c1cccc(-c2cc(Cl)c(O)c(Cl)c2)c1 [Compound 30, 3′,5′-Dichloro-4′-hydroxybiphenyl-3-carboxylic acid]

Plasma Selectivity (equiv bound) [1]: none observed
Molecule: O=C(O)c1cc(-c2cc(F)cc(F)c2)ccc1O [Compound 25, 3′,5′-Difluoro-4-hydroxybiphenyl-3-carboxylic acid]

Plasma Selectivity (equiv bound) [1]: 0.23 ± 0.00 equiv bound
Molecule: O=C(O)c1cccc(-c2cc(F)cc(F)c2)c1 [Compound 17, 3′,5′-Difluorobiphenyl-3-carboxylic acid]

Plasma Selectivity (equiv bound) [1]: 1.96 ± 0.11 equiv bound
Molecule: O=Cc1ccccc1-c1cc(Cl)cc(Cl)c1 [Compound 41, 3′,5′-Dichloro-2-formylbiphenyl]
effect on TTR tetramer dissociation in 6.5 M urea (WT TTR tetramer [4]): overall reduction in the extent of tetramer dissociation

Plasma Selectivity (equiv bound) [1]: 0.54 ± 0.10 equiv bound
Molecule: OCc1ccc(-c2cc(Cl)cc(Cl)c2)cc1 [Compound 49, 3′,5′-Dichlorobiphenyl-4-yl-methanol]
effect on TTR tetramer dissociation in 6.5 M urea (WT TTR tetramer [4]): overall reduction in the extent of tetramer dissociation

Equivalents Bound (Plasma) [2]: 0.70 ± 0.17
efficacy as fibril inhibitor (WT TTR): among the highest observed to date
Equivalents Bound (Blood) (TTR in whole blood): 0.56
Molecule: 2′-Fluorobiphenyl-3-carboxylic acid [Compound 15]

Equivalents Bound [2]: 0.62 ± 0.12
Molecule: O=C(O)c1cc(-c2ccc(F)cc2F)ccc1O [diflunisal, reference compound]

Equivalents Bound (Plasma) [2]: 1.48 ± 0.16
Equivalents Bound (Blood) (TTR in whole blood): 1.55
Molecule: 2′,6′-Difluorobiphenyl-3-carboxylic acid [Compound 19]

Equivalents Bound (Plasma) [2]: 1.23 ± 0.24
Equivalents Bound (Blood) (TTR in whole blood): 1.47
Molecule: 2′,4′-Difluorobiphenyl-4-carboxylic acid [Compound 12]
